Experimental data published in patent US20240182945A1, “PRODUCTS FOR REGULATION OF EUKARYOTIC AND MICROBIAL CELLS GROWTH” (priority 2021, published 2024).

Tests used:
P. aeruginosa = assay: Growth of primary pathogen alone on antibiotic-supplemented Columbia agar; type: cell-based; conditions: Bacterial set #4; Amikacin (1 μg/mL); Columbia agar with erythrocytes 5%, 24 h at 37 C
Method: Four sputum samples from patients with lung infections were used. Pure bacterial culture of each microorganisms was obtained by routine microbiological methods.
In this case this antibiotic at MIC of 16 ug/mL was used in the following studies. PP alone, or Microbial Modulators (MM) alone or the original sputum were plated on the wells of 24 well plate filled with nutrient Columbia agar supplemented with erythrocytes 5% and supplemented with antibiotics taken as MIC determined against PP, but not more than 16 μg/mL and incubated 24 h at 37 C.

E. coli = assay: Growth of microbial modulator alone on antibiotic-supplemented Columbia agar; type: cell-based; conditions: Bacterial set #4; Amikacin (1 μg/mL); Columbia agar with erythrocytes 5%, 24 h at 37 C
S. haemolyticus = assay: as above; type: cell-based; conditions: Bacterial set #4; Amikacin (1 μg/mL); Columbia agar with erythrocytes 5%, 24 h at 37 C
[1] = system: MIX—PP +BM (P. aeruginosa with microbial modulators); assay: Growth of mix PP + MM (original sputum) on antibiotic-supplemented Columbia agar; type: cell-based; conditions: Bacterial set #4; Amikacin (1 μg/mL); Columbia agar with erythrocytes 5%, 24 h at 37 C
[2] = system: bacteria of sputum from patients with lung diseases; assay: Sputum plated on 24-well plates with antibiotics at Cmax or C0-4 h, Algorithm #1 or #2; type: cell-based; further: key: '+'—presence of bacterial growth, antibiotic ineffective; '−'—absence of bacterial growth, antibiotic effective
Method: Pathological material (sputum) from patients with lung diseases was plated into wells of 24-well plates filled with a nutrient medium supplemented with erythrocytes 5%, to which antibiotics were added taken at different concentrations.
Group #1—antibiotics were taken at concentrations close to a maximum (peak) concentration achievable at the site of infection Cmax
Algorithm #1. Lab technician, analyzed the appearance of bacterial growth by comparing the signs of bacterial growth in each well supplemented with antibiotic(s) at certain timepoint, with the signs of bacterial growth in the same well at previous time point(s).
Algorithm #2. Lab technician analyzed the appearance of bacterial growth by comparing the signs of bacterial growth in each well supplemented with antibiotic(s) with bacterial growth in antibiotic-free control

[3] = system: bacteria of sputum from patients with lung diseases; assay: Standard antibiotic susceptibility study using the microbroth dilution method (Algorithm #3); type: cell-based; further: key: '+'—presence of bacterial growth, antibiotic ineffective; '−'—absence of bacterial growth, antibiotic effective
Description: Algorithm #3—Standard antibiotic susceptibility study using the microbroth dilution method.

Pseudomonas aeruginosa = conditions: cited from earlier work
[4] = system: bacteria of the biosample (persisters); assay: Neutropenic mice instilled with biosample and treated with antibiotic for 72 h, microbial growth in organs and blood; type: in vivo; conditions: neutropenic C57BL/6 mice treated for 72 h, agar with 100 ug/mL of the antibiotic
Method: Next, we confirmed that antibiotics selected with proposed algorithm are effective. Adult C57BL/6 mice were rendered neutropenic by injecting cyclophosphamide subcutaneously 4 days before infection (150 mg/kg of body weight), 1 day before infection (100 mg/kg), and 1 day after infection (100 mg/kg). Mice were anesthetized with 2% isoflurane and orally instilled with biosample (stored at +4 C). Briefly, nares were blocked, and mice aspirated 50 μL of the biosample into the lungs while being held vertically for 60 s.

[5] = Algorithm #1, antibiotic at C0-4 h
[6] = Algorithm #1, antibiotic at Cmax
[7] = Algorithm #2, antibiotic at C0-4 h
[8] = Algorithm #2, antibiotic at Cmax

SMILES: NCC[C@H](O)C(=O)N[C@@H]1C[C@H](N)[C@@H](O[C@H]2O[C@H](CN)[C@@H](O)[C@H](O)[C@H]2O)[C@H](O)[C@H]1O[C@H]1O[C@H](CO)[C@@H](O)[C@H](N)[C@H]1O [Amikacin]
- microbial growth, PA (PP alone) (P. aeruginosa): +
- microbial growth, EC (BM alone) (E. coli): −
- microbial growth, SH (BM alone) (S. haemolyticus): +
- Presence of PP in Mix (PP + MM) [1]: −
- ATB efficacy [2, 5]: −
- ATB efficacy [2, 6]: −
- ATB efficacy [2, 7]: −
- ATB efficacy [2, 8]: −
- ATB efficacy [3]: −

SMILES: CC1=C(C(=O)O)N2C(=O)[C@@H](NC(=O)[C@H](N)c3ccccc3)[C@H]2SC1 [Cephalexin]
- activity against Pseudomonas aeruginosa according to standard micro-broth dilution method (Pseudomonas aeruginosa): not active

SMILES: CN[C@H](CC(C)C)C(=O)N[C@H]1C(=O)N[C@@H](CC(N)=O)C(=O)N[C@H]2C(=O)N[C@H]3C(=O)N[C@H](C(=O)N[C@H](C(=O)O)c4cc(O)cc(O)c4-c4cc3ccc4O)[C@H](O)c3ccc(c(Cl)c3)Oc3cc2cc(c3O[C@@H]2O[C@H](CO)[C@@H](O)[C@H](O)[C@H]2O[C@H]2C[C@](C)(N)[C@H](O)[C@H](C)O2)Oc2ccc(cc2Cl)[C@H]1O [Vancomycin]
- ATB efficacy [2, 5]: +
- ATB efficacy [2, 6]: −
- ATB efficacy [2, 7]: +
- ATB efficacy [2, 8]: −
- ATB efficacy [3]: −
- Number of animals with positive microbial growth on the agar with antibiotics/total number of animals per group ([4]; Blood): 6/8
- Number of animals with positive microbial growth on the agar with antibiotics/total number of animals per group ([4]; Liver): 5/8
- Number of animals with positive microbial growth on the agar with antibiotics/total number of animals per group ([4]; Lungs): 8/8
- activity against Pseudomonas aeruginosa according to standard micro-broth dilution method (Pseudomonas aeruginosa): not active
